Laboratory results from ChEMBL document CHEMBL3046001, “4-Thiazolidinone and 1-thia-3,4,9-triaza fluorene conjugates: synthesis, characterization and antimicrobial screening” (2013).
Converted amounts (≈) assume the structure as drawn. The source made the active and inactive calls. The rule behind the calls is not given here.

How the values were obtained:
Penicillium chrysogenum [1] = experiment: Antifungal activity against Penicillium chrysogenum MTCC 161 assessed as growth inhibition after 24 hr by tube dilution method; format: functional; conditions: MTCC 161, 24 h
Pseudomonas fluorescens [2] = experiment: Antibacterial activity against Pseudomonas fluorescens MTCC 2421 assessed as growth inhibition after 24 hr by tube dilution method; format: functional; conditions: MTCC 2421, 24 h
Escherichia coli [3] = experiment: Antibacterial activity against Escherichia coli MTCC 1573 assessed as growth inhibition after 24 hr by tube dilution method; format: functional; conditions: MTCC 1573, 24 h
Bacillus pumilus [4] = experiment: Antibacterial activity against Bacillus pumilus MTCC 1456 assessed as growth inhibition after 24 hr by tube dilution method; format: functional; conditions: MTCC 1456, 24 h
Bacillus subtilis [5] = experiment: Antibacterial activity against Bacillus subtilis MTCC 441 assessed as growth inhibition after 24 hr by tube dilution method; format: functional; conditions: MTCC 441, 24 h
Bacillus subtilis [6] = experiment: Antibacterial activity against Bacillus subtilis MTCC 441 assessed as growth inhibition at 1250 ug/mL after 48 hr by agar diffusion method; format: functional; conditions: MTCC 441, 48 h, read-out: DIZ
Bacillus subtilis [7] = experiment: Antibacterial activity against Bacillus subtilis MTCC 441 assessed as growth inhibition at 1000 ug/mL after 48 hr by agar diffusion method; format: functional; conditions: MTCC 441, 48 h, read-out: DIZ
Bacillus subtilis [8] = experiment: Antibacterial activity against Bacillus subtilis MTCC 441 assessed as growth inhibition at 750 ug/mL after 48 hr by agar diffusion method; format: functional; conditions: MTCC 441, 48 h, read-out: DIZ
Bacillus subtilis [9] = experiment: Antibacterial activity against Bacillus subtilis MTCC 441 assessed as growth inhibition at 500 ug/mL after 48 hr by agar diffusion method; format: functional; conditions: MTCC 441, 48 h, read-out: DIZ
Penicillium chrysogenum [10] = experiment: Antifungal activity against Penicillium chrysogenum MTCC 161 assessed as growth inhibition at 1000 ug/mL after 48 hr by agar diffusion method; format: functional; conditions: MTCC 161, 48 h, read-out: DIZ
Penicillium chrysogenum [11] = experiment: Antifungal activity against Penicillium chrysogenum MTCC 161 assessed as growth inhibition at 750 ug/mL after 48 hr by agar diffusion method; format: functional; conditions: MTCC 161, 48 h, read-out: DIZ
Penicillium chrysogenum [12] = experiment: Antifungal activity against Penicillium chrysogenum MTCC 161 assessed as growth inhibition at 500 ug/mL after 48 hr by agar diffusion method; format: functional; conditions: MTCC 161, 48 h, read-out: DIZ
Penicillium chrysogenum [13] = experiment: Antifungal activity against Penicillium chrysogenum MTCC 161 assessed as growth inhibition at 250 ug/mL after 48 hr by agar diffusion method; format: functional
Penicillium chrysogenum [14] = experiment: Antifungal activity against Penicillium chrysogenum MTCC 161 assessed as growth inhibition at 100 ug/mL after 48 hr by agar diffusion method; format: functional, organism-based
Aspergillus niger [15] = experiment: Antifungal activity against Aspergillus niger MTCC 2546 assessed as growth inhibition at 1250 ug/mL after 48 hr by agar diffusion method; format: functional; conditions: MTCC 2546, 48 h, read-out: DIZ
Aspergillus niger [16] = experiment: Antifungal activity against Aspergillus niger MTCC 2546 assessed as growth inhibition at 1000 ug/mL after 48 hr by agar diffusion method; format: functional; conditions: MTCC 2546, 48 h, read-out: DIZ
Aspergillus niger [17] = experiment: Antifungal activity against Aspergillus niger MTCC 2546 assessed as growth inhibition at 250 ug/mL after 48 hr by agar diffusion method; format: functional
Pseudomonas fluorescens [18] = experiment: Antibacterial activity against Pseudomonas fluorescens MTCC 2421 assessed as growth inhibition at 1250 ug/mL after 48 hr by agar diffusion method; format: functional; conditions: MTCC 2421, 48 h, read-out: DIZ
Pseudomonas fluorescens [19] = experiment: Antibacterial activity against Pseudomonas fluorescens MTCC 2421 assessed as growth inhibition at 1000 ug/mL after 48 hr by agar diffusion method; format: functional; conditions: MTCC 2421, 48 h, read-out: DIZ
Pseudomonas fluorescens [20] = experiment: Antibacterial activity against Pseudomonas fluorescens MTCC 2421 assessed as growth inhibition at 750 ug/mL after 48 hr by agar diffusion method; format: functional; conditions: MTCC 2421, 48 h, read-out: DIZ
Pseudomonas fluorescens [21] = experiment: Antibacterial activity against Pseudomonas fluorescens MTCC 2421 assessed as growth inhibition at 500 ug/mL after 48 hr by agar diffusion method; format: functional; conditions: MTCC 2421, 48 h, read-out: DIZ
Micrococcus luteus [22] = experiment: Antibacterial activity against Micrococcus luteus MTCC 1538 assessed as growth inhibition at 500 ug/mL after 48 hr by agar diffusion method; format: functional; conditions: MTCC 1538, 48 h, read-out: DIZ
Micrococcus luteus [23] = experiment: Antibacterial activity against Micrococcus luteus MTCC 1538 assessed as growth inhibition at 250 ug/mL after 48 hr by agar diffusion method; format: functional
Micrococcus luteus [24] = experiment: Antibacterial activity against Micrococcus luteus MTCC 1538 assessed as growth inhibition at 100 ug/mL after 48 hr by agar diffusion method; format: functional
Bacillus pumilus [25] = experiment: Antibacterial activity against Bacillus pumilus MTCC 1456 assessed as growth inhibition at 1250 ug/mL after 48 hr by agar diffusion method; format: functional; conditions: MTCC 1456, 48 h, read-out: DIZ
Bacillus pumilus [26] = experiment: Antibacterial activity against Bacillus pumilus MTCC 1456 assessed as growth inhibition at 500 ug/mL after 48 hr by agar diffusion method; format: functional; conditions: MTCC 1456, 48 h, read-out: DIZ
Bacillus pumilus [27] = experiment: Antibacterial activity against Bacillus pumilus MTCC 1456 assessed as growth inhibition at 250 ug/mL after 48 hr by agar diffusion method; format: functional; conditions: MTCC 1456, 48 h, read-out: DIZ
Staphylococcus aureus [28] = experiment: Antibacterial activity against Staphylococcus aureus MTCC 1430 assessed as growth inhibition at 1000 ug/mL after 48 hr by agar diffusion method; format: functional; conditions: MTCC 1430, 48 h, read-out: DIZ
Staphylococcus aureus [29] = experiment: Antibacterial activity against Staphylococcus aureus MTCC 1430 assessed as growth inhibition at 750 ug/mL after 48 hr by agar diffusion method; format: functional; conditions: MTCC 1430, 48 h, read-out: DIZ
Staphylococcus aureus [30] = experiment: Antibacterial activity against Staphylococcus aureus MTCC 1430 assessed as growth inhibition at 500 ug/mL after 48 hr by agar diffusion method; format: functional; conditions: MTCC 1430, 48 h, read-out: DIZ
Staphylococcus aureus [31] = experiment: Antibacterial activity against Staphylococcus aureus MTCC 1430 assessed as growth inhibition at 100 ug/mL after 48 hr by agar diffusion method; format: functional, organism-based
Pseudomonas aeruginosa [32] = experiment: Antibacterial activity against Pseudomonas aeruginosa MTCC 424 assessed as growth inhibition at 250 ug/mL after 48 hr by agar diffusion method; format: functional; conditions: MTCC 424, 48 h, read-out: DIZ
Pseudomonas aeruginosa [33] = experiment: Antibacterial activity against Pseudomonas aeruginosa MTCC 424 assessed as growth inhibition at 100 ug/mL after 48 hr by agar diffusion method; format: functional; conditions: MTCC 424, 48 h, read-out: DIZ
Micrococcus luteus [34] = experiment: Antibacterial activity against Micrococcus luteus MTCC 1538 assessed as growth inhibition at 1250 ug/mL after 48 hr by agar diffusion method; format: functional; conditions: MTCC 1538, 48 h, read-out: DIZ
Micrococcus luteus [35] = experiment: Antibacterial activity against Micrococcus luteus MTCC 1538 assessed as growth inhibition at 1000 ug/mL after 48 hr by agar diffusion method; format: functional; conditions: MTCC 1538, 48 h, read-out: DIZ
Micrococcus luteus [36] = experiment: Antibacterial activity against Micrococcus luteus MTCC 1538 assessed as growth inhibition at 750 ug/mL after 48 hr by agar diffusion method; format: functional; conditions: MTCC 1538, 48 h, read-out: DIZ
Escherichia coli [37] = experiment: Antibacterial activity against Escherichia coli MTCC 1573 assessed as growth inhibition at 250 ug/mL after 48 hr by agar diffusion method; format: functional; conditions: MTCC 1573, 48 h, read-out: DIZ
Escherichia coli [38] = experiment: Antibacterial activity against Escherichia coli MTCC 1573 assessed as growth inhibition at 100 ug/mL after 48 hr by agar diffusion method; format: functional; conditions: MTCC 1573, 48 h, read-out: DIZ
Pseudomonas aeruginosa [39] = experiment: Antibacterial activity against Pseudomonas aeruginosa MTCC 424 assessed as growth inhibition at 500 ug/mL after 48 hr by agar diffusion method; format: functional; conditions: MTCC 424, 48 h, read-out: DIZ

| Compound | MIC (Penicillium chrysogenum [1]) [µg/mL] | MIC (Pseudomonas fluorescens [2]) [µg/mL] | MIC (Escherichia coli [3]) [µg/mL] | MIC (Bacillus pumilus [4]) [µg/mL] | MIC (Bacillus subtilis [5]) [µg/mL] | zone of inhibition at 1250 µg/mL (Bacillus subtilis [6]) [mm] | zone of inhibition at 1000 µg/mL (Bacillus subtilis [7]) [mm] | zone of inhibition at 750 µg/mL (Bacillus subtilis [8]) [mm] | zone of inhibition at 500 µg/mL (Bacillus subtilis [9]) [mm] | zone of inhibition at 1000 µg/mL (Penicillium chrysogenum [10]) [mm] | zone of inhibition at 750 µg/mL (Penicillium chrysogenum [11]) [mm] | zone of inhibition at 500 µg/mL (Penicillium chrysogenum [12]) [mm] | growth inhibition (GI) (Penicillium chrysogenum [14]) | zone of inhibition at 1250 µg/mL (Aspergillus niger [15]) [mm] | zone of inhibition at 1000 µg/mL (Aspergillus niger [16]) [mm] | zone of inhibition at 1250 µg/mL (Pseudomonas fluorescens [18]) [mm] | zone of inhibition at 1000 µg/mL (Pseudomonas fluorescens [19]) [mm] | zone of inhibition at 750 µg/mL (Pseudomonas fluorescens [20]) [mm] | zone of inhibition at 500 µg/mL (Pseudomonas fluorescens [21]) [mm] | zone of inhibition at 500 µg/mL (Micrococcus luteus [22]) [mm] | further results |
| --- | --- | --- | --- | --- | --- | --- | --- | --- | --- | --- | --- | --- | --- | --- | --- | --- | --- | --- | --- | --- | --- |
| CC1SCC(=O)N1c1nnc2c3cc(Cl)ccc3nc-2s1 (stereo not drawn) | 250 (≈ 742 µM) | 150 (≈ 445 µM) | 30 (≈ 89.1 µM) | 40 (≈ 119 µM) | 50 (≈ 148 µM) | 21 | 19 | 17 | 15 | 18 | 14 | 12 | inactive | 17 | 15 | 19 | 15 | 12 | 8 | 10 | growth inhibition (GI) (Penicillium chrysogenum [13]): inactive; growth inhibition (GI) (Aspergillus niger [17]): inactive; growth inhibition (GI) (Micrococcus luteus [23]): inactive; growth inhibition (GI) (Micrococcus luteus [24]): inactive; zone of inhibition at 1250 µg/mL (Bacillus pumilus [25]): 18 mm; zone of inhibition at 500 µg/mL (Bacillus pumilus [26]): 12 mm; zone of inhibition at 250 µg/mL (Bacillus pumilus [27]): 10 mm; zone of inhibition at 1000 µg/mL (Staphylococcus aureus [28]): 15 mm; zone of inhibition at 750 µg/mL (Staphylococcus aureus [29]): 13 mm; zone of inhibition at 500 µg/mL (Staphylococcus aureus [30]): 10 mm; growth inhibition (GI) (Staphylococcus aureus [31]): inactive; zone of inhibition at 250 µg/mL (Pseudomonas aeruginosa [32]): 9 mm; zone of inhibition at 100 µg/mL (Pseudomonas aeruginosa [33]): 7 mm; zone of inhibition at 1250 µg/mL (Micrococcus luteus [34]): 19 mm; zone of inhibition at 1000 µg/mL (Micrococcus luteus [35]): 17 mm; zone of inhibition at 750 µg/mL (Micrococcus luteus [36]): 14 mm; zone of inhibition at 250 µg/mL (Escherichia coli [37]): 11 mm; zone of inhibition at 100 µg/mL (Escherichia coli [38]): 9 mm; zone of inhibition at 500 µg/mL (Pseudomonas aeruginosa [39]): 14 mm |
| O=C1CSC(c2cccc3ccccc23)N1c1nnc2c3cc(Cl)ccc3nc-2s1 (stereo not drawn) | 150 (≈ 334 µM) | 40 (≈ 89.1 µM) | 30 (≈ 66.8 µM) | 40 (≈ 89.1 µM) | 150 (≈ 334 µM) | 20 | 18 | 15 | 11 | 15 | 15 | 11 | inactive | 18 | 15 | 24 | 20 | 15 | 12 | 8 | zone of inhibition at 250 µg/mL (Penicillium chrysogenum [13]; MTCC 161, 48 h, read-out: DIZ): 8 mm; zone of inhibition at 250 µg/mL (Aspergillus niger [17]; MTCC 2546, 48 h, read-out: DIZ): 8 mm; growth inhibition (GI) (Micrococcus luteus [23]): inactive; growth inhibition (GI) (Micrococcus luteus [24]): inactive; zone of inhibition at 1250 µg/mL (Bacillus pumilus [25]): 20 mm; zone of inhibition at 500 µg/mL (Bacillus pumilus [26]): 13 mm; zone of inhibition at 250 µg/mL (Bacillus pumilus [27]): 10 mm; zone of inhibition at 1000 µg/mL (Staphylococcus aureus [28]): 10 mm; zone of inhibition at 750 µg/mL (Staphylococcus aureus [29]): 8 mm; zone of inhibition at 500 µg/mL (Staphylococcus aureus [30]): 6 mm; growth inhibition (GI) (Staphylococcus aureus [31]): inactive; zone of inhibition at 250 µg/mL (Pseudomonas aeruginosa [32]): 10 mm; zone of inhibition at 100 µg/mL (Pseudomonas aeruginosa [33]): 8 mm; zone of inhibition at 1250 µg/mL (Micrococcus luteus [34]): 20 mm; zone of inhibition at 1000 µg/mL (Micrococcus luteus [35]): 15 mm; zone of inhibition at 750 µg/mL (Micrococcus luteus [36]): 12 mm; zone of inhibition at 250 µg/mL (Escherichia coli [37]): 10 mm; zone of inhibition at 100 µg/mL (Escherichia coli [38]): 7 mm; zone of inhibition at 500 µg/mL (Pseudomonas aeruginosa [39]): 12 mm |
